Series [1] deals with photoaged skin. As to the kind of experiment: topical application of strontium ion in a carrier to skin. The class given is in vivo. The settings on record: carrier e.g. distillate of orange flower petals (neroli floral water), within minutes of application. How it is done:
The epidermal ridges are less pronounced, an effect that may be related to relaxation of erector muscles.
This effect lasted for about 4 hours.

The conditions of series [2]: taken orally, long term use; cited from earlier work.

Each structure is given as a SMILES string.

As for `[Sr+2]` [strontium ion], the “effect on skin texture” value in series [1] is “changes the texture of photoaged skin, resulting in a more youthful complexion”. Moreover, in series [2], the toxicity entry is “toxicity is not a problem”.

The record behind these values is US20080026074A1, “Method of short term skin wrinkles correction using strontium divalent ion” (priority 2006, published 2008).
